US11318113B2, “Compounds for the treatment of diseases linked to mitochondrial reactive oxygen species (ROS) production” (OP2 DRUGS, priority 2015, dated 2022)
Values after ≈ are worked out from the molar mass of the structure shown.

What was measured:
[1] = tested on: normoxic, chronic hypoxic and monocrotaline-treated rats; experiment: Pulmonary hypertension rat models (chronic hypoxia, monocrotaline); format: in vivo
Protocol: Male Wistar rats (300-400 g) were separated into 3 groups and used 4 weeks later: • the first group (control or normoxic rats—N rats) was housed in ambient room air; • the second group (chronic hypoxic rats—CH rats) was exposed to chronic hypoxia for 3 weeks in a hypobaric chamber (50 kPa), and • the third group (MCT rats) was injected with a single intraperitoneal dose of monocrotaline at a dose of 60 mg/kg. MCT (Sigma, St Quentin Fallavier, France) was dissolved in an equal volume of HCl ([…]) and NaOH ([…]).
In each group, some animals were treated with AOL (Sulfarlem, EG Labo Eurogenerics. Crushed tablets mixed with food, fed ad libitum) and some other animals were untreated. Eaten food was weighed every day to estimate the AOL dose administered. 10 mg/kg/day was thus administered during the 3 weeks of experiment for the second and third groups.
Pulmonary hypertension was assessed by measuring both the mean pulmonary arterial pressure (mPAP) and right ventricle hypertrophy. To measure PAP, N, CH and MCT rats were anesthetized with pentobarbital sodium (Centravet) by intraperitoneal injection (60 mg/kg) and mPAP was measured, in closed-chest rats, through a catheter inserted in the right jugular vein, then through the right atria and the right ventricle into the pulmonary artery, and attached to a Baxter Uniflow gauge pressure transducer.
Right ventricle hypertrophy was estimated by the ratio of right ventricle (RV) to left ventricle plus septum (LV+S) weight (Fulton index).
Pulmonary arteries (PA) remodeling was assessed by measuring the percentage of the PA medial thickness from sections of paraffin-embedded lung. Lung sections were first stained with hematoxylin and eosin (VWR) according to common histological procedure.

[2] = tested on: outer nuclear layer (ONL) of the retina; experiment: Progressive light-induced retinal degeneration, retina histology; format: in vivo, rat; details: 6 mg/kg/day, three times a day, 7 days
Protocol: Rats bred under cyclic low-intensity lighting were transferred to cyclic high-intensity lighting for one week and divided into 3 groups (non-treated animals, vehicle-treated animals and AOL-treated animals). Treated animals received injections of vehicle or AOL at a dose of 6 mg/kg/day, three times a day for the 7 days of the transfer (30 minutes before light-ON; at 01.00 pm; at 09.00 pm). After one week, animals were transferred in the dark (D0).
A control group (“untransferred”) was not transferred to cyclic high-intensity lighting but received the same treatment as described above: injections of vehicle or AOL three times a day for 7 days, followed by a transfer in the dark (D0).
Animals were then sacrificed for histological analysis.

[3] = Solubility limit in Kolliphor; format: physicochemical
[4] = stated as known; cited from earlier work
[5] = tested on: site IQ of complex I of the mitochondrial respiratory chain; experiment: Mitochondrial ROS/H2O2 production (Amplex Red/HRP), no complex inhibitor, ATR only; format: biochemical, rat; details: glutamate+malate+succinate, ATR (state 4); AOL 5 to 80 μM
Protocol: Rates of ROS/H2O2 production from heart mitochondria were assessed through the oxidation of the colorless, non-fluorescent indicator Amplex Red in the presence of exogenous horseradish peroxidase (HRP, EC 1.11.1.7, Sigma). H2O2 reacts with Amplex Red in a 1:1 stoichiometry, yielding the fluorescent compound resorufin (excitation: 560 nm; emission: 585 nm) which is stable once formed. Fluorescence was measured continuously with a spectro-fluorometer equipped with temperature control and stirring (SAFAS Xenius, Monaco). Isolated mitochondria (0.1 mg/mL) were incubated in the same experimental buffer than previously, supplemented with 15 μM Amplex Red and 10 μg/mL HRP. Glutamate (5 mM)/malate (2.5 mM) together with succinate (5 mM) were used as complex I and complex II substrates, respectively. Experiments were conducted under non-phosphorylating conditions in the presence of 15 μM atractyloside, i.e. under state IV conditions where mitochondrial membrane […]. […]
FIG. 3 illustrates the effect of the presence of increasing concentrations of AOL (from 5 to 80 μM) on ROS/H2O2 production measured under the different conditions defined in FIG. 2. […]

In the case of COc1ccc(-c2cc(=S)ss2)cc1 [AOL, 5-(4-methoxyphenyl)-3H-1,2-dithiole-3-thione], the “reduction of pulmonary arteries remodeling (printed: pulmonary arteries diameter)” value ([1]; CH rats, oral 10 mg/kg/day) is reported as roughly 30%, the “mean pulmonary arterial pressure (mPAP)” value ([1]; CH rats, oral 10 mg/kg/day, 3 weeks) is reported as “even more significantly” and the “mean pulmonary arterial pressure (mPAP)” value ([1]; MCT rats, oral 10 mg/kg/day, 3 weeks) is reported as “decreased”. The “mean pulmonary arterial pressure (mPAP)” value ([1]; normoxic (N) rats) was “no significant effect”, the “Fulton index (right ventricular hypertrophy)” value ([1]; oral 10 mg/kg/day) was “no effect” and the ONL thickness ([2]; transferred to cyclic high-intensity lighting) was “significant increase”. For the same compound, the ONL thickness ([2]; untransferred control group) was “no effect”, the solubility limit [3] was 2.8 mM (≈ 673 µg/mL) and the bioavailability [4] was “very short”. For the same compound, the “decrease of ROS/H2O2 production measured in the absence of inhibitor” value [5] was “approximately 80%”.
